Measurements: BindingDB's records for doi:10.1016/j.bmcl.2009.11.072 (Roche Palo Alto, 2010)

Test: Antagonist activity at human recombinant CCR5 by cell-cell fusion assay
In the case of `CC(=O)N1CCC(CCN2C[C@@H]3CN(C(=O)c4c(C)ncnc4C)C[C@@H]3C2)(c2cccc(F)c2)CC1` [1-(4-(2-((3aR,6aS)-5-(4,6-dimethylpyrimidine-5-carbonyl)hexahydropyrrolo[3,4-c]pyrrol-2(1H)-yl)ethyl)-4-(3-fluorophenyl)piperidin-1-yl)ethanone], the IC50 is reported as over 2500 nM. Work on `Cc1cc(C(F)(F)F)nc(C)c1C(=O)N1C[C@H]2CN(CCC3(c4ccccc4)CN(C(=O)C4CCC(F)(F)CC4)C3)C[C@H]2C1` [((3aR,6aS)-5-(2-(1-(4,4-difluorocyclohexanecarbonyl)-3-phenylazetidin-3-yl)ethyl)hexahydropyrrolo[3,4-c]pyrrol-2(1H)-yl)(2,4-dimethyl-6-(trifluoromethyl)pyridin-3-yl)methanone] yielded an IC50 of 2 nM. `Cc1ncnc(C)c1C(=O)N1C[C@H]2CN(CCC3(c4cccc(F)c4)CCN(C(=O)C(C)(C)CO)CC3)C[C@H]2C1` [1-(4-(2-((3aR,6aS)-5-(4,6-dimethylpyrimidine-5-carbonyl)hexahydropyrrolo[3,4-c]pyrrol-2(1H)-yl)ethyl)-4-(3-fluorophenyl)piperidin-1-yl)-3-hydroxy-2,2-dimethylpropan-1-one] showed an IC50 of 1000 nM. For `Cc1ncnc(C)c1C(=O)N1C[C@H]2CN(CCC3(c4cccc(F)c4)CCN(C(=O)C(C)C)CC3)C[C@H]2C1` [1-(4-(2-((3aR,6aS)-5-(4,6-dimethylpyrimidine-5-carbonyl)hexahydropyrrolo[3,4-c]pyrrol-2(1H)-yl)ethyl)-4-(3-fluorophenyl)piperidin-1-yl)-2-methylpropan-1-one], the IC50 was 160 nM. Compound `Cc1ncnc(C)c1C(=O)N1C[C@H]2CN(CCC3(c4ccccc4)CN(C(=O)C(C)(C)C)C3)C[C@H]2C1` [1-(3-(2-((3aR,6aS)-5-(4,6-dimethylpyrimidine-5-carbonyl)hexahydropyrrolo[3,4-c]pyrrol-2(1H)-yl)ethyl)-3-phenylazetidin-1-yl)-2,2-dimethylpropan-1-one] has an IC50 of 186 nM. With `Cc1ncnc(C)c1C(=O)N1C[C@H]2CN(CCC3(c4ccccc4)CN(C(=O)C4CCC(F)(F)CC4)C3)C[C@H]2C1` [((3aR,6aS)-5-(2-(1-(4,4-difluorocyclohexanecarbonyl)-3-phenylazetidin-3-yl)ethyl)hexahydropyrrolo[3,4-c]pyrrol-2(1H)-yl)(4,6-dimethylpyrimidin-5-yl)methanone] the IC50 was 10 nM. With `Cc1ncnc(C)c1C(=O)N1C[C@H]2CN(CCC3(c4cccc(F)c4)CCN(C(=O)C(C)(C)C)CC3)C[C@H]2C1` [1-(4-(2-((3aR,6aS)-5-(4,6-dimethylpyrimidine-5-carbonyl)hexahydropyrrolo[3,4-c]pyrrol-2(1H)-yl)ethyl)-4-(3-fluorophenyl)piperidin-1-yl)-2,2-dimethylpropan-1-one] the IC50 was 129 nM. In the case of `Cc1ccnc(C)c1C(=O)N1C[C@H]2CN(CCC3(c4ccccc4)CN(C(=O)C4CCC(F)(F)CC4)C3)C[C@H]2C1` [((3aR,6aS)-5-(2-(1-(4,4-difluorocyclohexanecarbonyl)-3-phenylazetidin-3-yl)ethyl)hexahydropyrrolo[3,4-c]pyrrol-2(1H)-yl)(2,4-dimethylpyridin-3-yl)methanone], the IC50 is reported as 15 nM. For `Cc1ncnc(C)c1C(=O)N1C[C@H]2CN(CCC3(c4ccccc4)CCN(C(=O)C(C)(C)C)C3)C[C@H]2C1` (stereo partly drawn) [1-(3-(2-((3aR,6aS)-5-(4,6-dimethylpyrimidine-5-carbonyl)hexahydropyrrolo[3,4-c]pyrrol-2(1H)-yl)ethyl)-3-phenylpyrrolidin-1-yl)-2,2-dimethylpropan-1-one], the IC50 was 1940 nM. With `Cc1cc(C(F)(F)F)nc(C)c1C(=O)N1C[C@H]2CN(CCC3(c4ccccc4)CN(C(=O)C4CC(F)(F)C4)C3)C[C@H]2C1` [((3aR,6aS)-5-(2-(1-(3,3-difluorocyclobutanecarbonyl)-3-phenylazetidin-3-yl)ethyl)hexahydropyrrolo[3,4-c]pyrrol-2(1H)-yl)(2,4-dimethyl-6-(trifluoromethyl)pyridin-3-yl)methanone] the IC50 was 3 nM. Compound `Cc1ncnc(C)c1C(=O)N1C[C@H]2CN(CCC3(c4ccccc4)CN(S(=O)(=O)C4CCCC4)C3)C[C@H]2C1` [((3aR,6aS)-5-(2-(1-(cyclopentylsulfonyl)-3-phenylazetidin-3-yl)ethyl)hexahydropyrrolo[3,4-c]pyrrol-2(1H)-yl)(4,6-dimethylpyrimidin-5-yl)methanone] has an IC50 of 458 nM. Work on `Cc1ncnc(C)c1C(=O)N1C[C@H]2CN(CCC3(c4ccccc4)CN(C(=O)C(C)(C)CO)C3)C[C@H]2C1` [1-(3-(2-((3aR,6aS)-5-(4,6-dimethylpyrimidine-5-carbonyl)hexahydropyrrolo[3,4-c]pyrrol-2(1H)-yl)ethyl)-3-phenylazetidin-1-yl)-3-hydroxy-2,2-dimethylpropan-1-one] yielded an IC50 of 310 nM. Work on `Cc1cc(C#N)nc(C)c1C(=O)N1C[C@H]2CN(CCC3(c4ccccc4)CCN(C(=O)C4CCCC4)C3)C[C@H]2C1` (stereo partly drawn) [5-((3aR,6aS)-5-(2-(1-(cyclopentanecarbonyl)-3-phenylpyrrolidin-3-yl)ethyl)octahydropyrrolo[3,4-c]pyrrole-2-carbonyl)-4,6-dimethylpicolinonitrile] yielded an IC50 of 85 nM. With `Cc1nc(C(F)(F)F)nc(C)c1C(=O)N1C[C@H]2CN(CCC3(c4ccccc4)CN(C(=O)C4CC(F)(F)C4)C3)C[C@H]2C1` [((3aR,6aS)-5-(2-(1-(3,3-difluorocyclobutanecarbonyl)-3-phenylazetidin-3-yl)ethyl)hexahydropyrrolo[3,4-c]pyrrol-2(1H)-yl)(4,6-dimethyl-2-(trifluoromethyl)pyrimidin-5-yl)methanone] the IC50 was 168 nM. With `Cc1ncnc(C)c1C(=O)N1C[C@H]2CN(CCC3(c4cccc(F)c4)CCN(C(=O)CC(C)(C)C)CC3)C[C@H]2C1` [1-(4-(2-((3aR,6aS)-5-(4,6-dimethylpyrimidine-5-carbonyl)hexahydropyrrolo[3,4-c]pyrrol-2(1H)-yl)ethyl)-4-(3-fluorophenyl)piperidin-1-yl)-3,3-dimethylbutan-1-one] the IC50 was 339 nM. Compound `Cc1cc(C#N)nc(C)c1C(=O)N1C[C@H]2CN(CCC3(c4cccc(F)c4)CCN(C(=O)C(C)(C)C)CC3)C[C@H]2C1` [5-((3aR,6aS)-5-(2-(4-(3-fluorophenyl)-1-pivaloylpiperidin-4-yl)ethyl)octahydropyrrolo[3,4-c]pyrrole-2-carbonyl)-4,6-dimethylpicolinonitrile] has an IC50 of 37 nM. Compound `Cc1ncnc(C)c1C(=O)N1C[C@H]2CN(CCC3(c4ccccc4)CN(C(=O)CC4CCCC4)C3)C[C@H]2C1` [2-cyclopentyl-1-(3-(2-((3aR,6aS)-5-(4,6-dimethylpyrimidine-5-carbonyl)hexahydropyrrolo[3,4-c]pyrrol-2(1H)-yl)ethyl)-3-phenylazetidin-1-yl)ethanone] has an IC50 of 136 nM. For `Cc1nc(C(F)(F)F)nc(C)c1C(=O)N1C[C@H]2CN(CCC3(c4ccccc4)CN(C(=O)C4CCC(F)(F)CC4)C3)C[C@H]2C1` [((3aR,6aS)-5-(2-(1-(4,4-difluorocyclohexanecarbonyl)-3-phenylazetidin-3-yl)ethyl)hexahydropyrrolo[3,4-c]pyrrol-2(1H)-yl)(4,6-dimethyl-2-(trifluoromethyl)pyrimidin-5-yl)methanone], the IC50 was 5 nM. Work on `Cc1ncnc(C)c1C(=O)N1C[C@H]2CN(CCC3(c4ccccc4)CN(C(=O)C4CCOC4)C3)C[C@H]2C1` (stereo partly drawn) [(4,6-dimethylpyrimidin-5-yl)((3aR,6aS)-5-(2-(3-phenyl-1-(tetrahydrofuran-3-carbonyl)azetidin-3-yl)ethyl)hexahydropyrrolo[3,4-c]pyrrol-2(1H)-yl)methanone] yielded an IC50 of 559 nM. `Cc1ncnc(C)c1C(=O)N1C[C@H]2CN(CCC3(c4ccccc4)CN(C(=O)C4CC(F)(F)C4)C3)C[C@H]2C1` [((3aR,6aS)-5-(2-(1-(3,3-difluorocyclobutanecarbonyl)-3-phenylazetidin-3-yl)ethyl)hexahydropyrrolo[3,4-c]pyrrol-2(1H)-yl)(4,6-dimethylpyrimidin-5-yl)methanone] showed an IC50 of 93 nM. Work on `Cc1cc(C#N)nc(C)c1C(=O)N1C[C@H]2CN(CCC3(c4ccccc4)CCN(C(=O)C(C)(C)C)C3)C[C@H]2C1` (stereo partly drawn) [4,6-dimethyl-5-((3aR,6aS)-5-(2-(3-phenyl-1-pivaloylpyrrolidin-3-yl)ethyl)octahydropyrrolo[3,4-c]pyrrole-2-carbonyl)picolinonitrile] yielded an IC50 of 360 nM. `Cc1nc(C(F)(F)F)nc(C)c1C(=O)N1C[C@H]2CN(CCC3(c4ccccc4)CN(C(=O)C4CCOC4)C3)C[C@H]2C1` (stereo partly drawn) [(4,6-dimethyl-2-(trifluoromethyl)pyrimidin-5-yl)((3aR,6aS)-5-(2-(3-phenyl-1-(tetrahydrofuran-3-carbonyl)azetidin-3-yl)ethyl)hexahydropyrrolo[3,4-c]pyrrol-2(1H)-yl)methanone] gave an IC50 of 92 nM. For `Cc1cc(C#N)nc(C)c1C(=O)N1C[C@H]2CN(CCC3(c4ccccc4)CN(C(=O)C4CC(F)(F)C4)C3)C[C@H]2C1` [5-((3aR,6aS)-5-(2-(1-(3,3-difluorocyclobutanecarbonyl)-3-phenylazetidin-3-yl)ethyl)octahydropyrrolo[3,4-c]pyrrole-2-carbonyl)-4,6-dimethylpicolinonitrile], the IC50 was 1 nM.
